One experiment relates to mice. As to the kind of experiment: KA induced ongoing SE, EEG, treatment with DZ or DZ/Compound A 2 h after KA. The settings on record: given 2 h after KA. Format: in vivo. As for the experimental part: EEG recordings and analysis. WT C57Bl/6J adult male mice (12 weeks) were anesthetized with isofluorane and implanted with EEG/EMG electrodes and allowed to recover for 7 days prior to experimentation. […] 2 h following KA administration mice were injected with a saturating concentration of diazepam (DZ) 10 mg/kg (IP) and recordings were extended for a further 60 min. […] LabChart 8 software was used for data analysis. Epileptiform activity was identified by changes in the amplitude of electrographic activity characterized by consistent changes in the power of the Fast Fourier transform (FFT) of the EEG and abnormal activity characterized by periods of rhythmic spiking lasting longer than 30 s (Moore et al., 2017, supra; Silayeva et al., 2015, supra; Sivakumaran et al., J. Neurosci. 35, 8291-8296 (2015)).
To evaluate the potential of KCC2 activators to terminate ongoing SE, the KA model described above was employed. Mice were injected with KA (20 mg/Kg; IP). […] Spectral data were then subjected to FFT and the total EEG power between 1-100 Hz of the 2 h following KA treatment (pre-drug) and 30 min following their injection (post-drug) were compared (FIG. 6B). In mice treated with DZ alone variable effects were observed, from large increases to modest reductions in EEG power, but these effects were not significant (FIG. 6C; pre=1.1±0.2×10^−6, post=4.4±7.4×10^−7 μV^2, p=0.214, n=13-14 mice). […]

Experiment [1] deals with panel of 144 protein kinases. As to the kind of experiment: SelectScreen panel of 144 protein kinases. Particulars: incl. PKC isoforms, OSR1, SPAK, WNK. Format: biochemical.

For `CN1C(=O)CN=C(c2ccccc2)c2cc(Cl)ccc21` [DZ, diazepam, reference compound], the “mice insensitive to the effects of DZ on EEG power” value in the experiment on mice turned out to be 62%.

In the case of `C[C@@H]1CN(c2nc3c(c(Nc4ccc(C5CCCCC5)cc4)n2)COC3)CCO1` [Compound A, (R)-N-(4-cyclohexylphenyl)-2-(2-methylmorpholino)-5,7-dihydrofuro[3,4-d]pyrimidin-4-amine], in experiment [1], the “activity of a panel of 144 protein kinases” value was “did not modify the activity”. In addition, in the experiment with mice, the “mice insensitive to the effects of DZ on EEG power” value was “abolished”.

The values are drawn from patent publication US20250281500A1, “FUSED AMINO PYRIMIDINE COMPOUNDS AND PRIDOPIDINE FOR TREATMENT OF HUNTINGTON’S DISEASE” (Ovid Therapeutics Inc., priority 2024, published 2025).
